system: larvae of the banded cucumber beetle (Diabrotica balteata); assay: Diabrotica balteata spray test; format: in vivo; settings: 168 h, 100 g/ha (=32 μg/well), after 7 days, read-out: efficacy (seedling growth)
Description: Diabrotica balteata—Spray Test
(§1) • Solvent: 78.0 parts by weight of acetone • 1.5 parts by weight of dimethylformamide • Emulsifier: alkylarylpolyglycol ether
(§2) To produce a suitable preparation of active compound, 1 part by weight of active compound is mixed with the stated amount of solvent, and the concentrate is diluted with water, containing an emulsifier concentration of 1000 ppm, to the desired concentration. Further test concentrations are prepared by dilution with emulsifier containing water.
Soaked wheat seeds (Triticum aestivum) are placed in a multiple well plate filled with agar and some water and are incubated for 1 day to germinate (5 seeds per well). The germinated wheat seeds are sprayed with a test solution containing the desired concentration of the active ingredient. Afterwards each unit is infected with 10-20 larvae of the banded cucumber beetle (Diabrotica balteata).
After 7 days efficacy in % is determined. 100% means all the seedlings have grown up like in the untreated, uninfected control; 0% means none of the seedlings have grown.

Row | SMILES | pest or weed control at 32 µg/disc, 100 g/ha
1 | Cc1nc([C@H](C)NC(=O)c2cc(C(F)(F)F)cc(S(C)(=O)=O)c2)n(-c2cc(C#N)ncn2)n1 [I-23] | 100%
2 | Cc1nc([C@H](C)NC(=O)c2cc(S(=O)(=O)C(F)(F)F)cc(S(=O)(=O)C(F)(F)F)c2)n(-c2cc(C#N)ncn2)n1 [I-29] | 100%
3 | C[C@H](NC(=O)c1cccc(F)c1)c1ncnn1-c1cc(C(N)=O)ncn1 [I-44] | 100%
4 | C[C@H](NC(=O)c1cc(Cl)cc(S(C)(=O)=O)c1)c1ncnn1-c1cc(C(N)=O)ncn1 [I-59] | 100%
5 | CNC(=O)c1cc(-n2ncnc2[C@H](C)NC(=O)c2cc(Cl)cc(S(C)(=O)=O)c2)ncn1 [I-60] | 100%
6 | CNC(=O)c1cc(-n2ncnc2[C@H](C)NC(=O)c2cc(Br)cc(OC(F)F)c2)ncn1 [I-72] | 80%
7 | C[C@H](NC(=O)c1cc(F)cc(C#N)c1)c1ncnn1-c1cc(C(N)=O)ncn1 [I-77] | 100%
8 | C[C@H](NC(=O)c1cc(C(F)(F)F)cc(S(C)(=O)=O)c1)c1ncnn1-c1cc(C(N)=O)ncn1 [I-78] | 100%
9 | C[C@H](NC(=O)c1cc(F)cc(OC(F)F)c1)c1ncnn1-c1cc(C(N)=O)ncn1 [I-79] | 100%
10 | CNC(=O)c1cc(-n2ncnc2[C@H](C)NC(=O)c2cc(C(F)(F)F)cc(S(C)(=O)=O)c2)ncn1 [I-81] | 100%
11 | C[C@H](NC(=O)c1cc(OC(F)(F)F)cc(S(C)(=O)=O)c1)c1ncnn1-c1cc(C(N)=O)ncn1 [I-82] | 100%
12 | CNC(=O)c1cc(-n2ncnc2[C@H](C)NC(=O)c2cc(OC(F)(F)F)cc(S(C)(=O)=O)c2)ncn1 [I-83] | 100%
13 | C[C@H](NC(=O)c1cccc(C(F)(F)F)c1)c1ncnn1-c1cc(C(N)=O)ncn1 [I-92] | 100%
14 | CNC(=O)c1cc(-n2ncnc2[C@H](C)NC(=O)c2cc(OC(F)F)cc(OC(F)F)c2)ncn1 [I-94] | 100%
15 | Cc1nc([C@H](C)NC(=O)c2cccc(OC(F)(F)F)c2)n(-c2cc(C(N)=O)ncn2)n1 [I-101] | 100%

system: green peach aphid (Myzus persicae); assay: Myzus persicae spray test (MYZUPE); format: in vivo; settings: 120 h, 100 g/ha, after 5 days
Description: Myzus persicae—Spray Test
• Solvent: 78.0 parts by weight acetone • 1.5 parts by weight dimethylformamide • Emulsifier: alkylarylpoly glycol ether
as §2, with “solvents” for “solvent,”, “and” for “and the concentrate”
Chinese cabbage (Brassica pekinensis) leaf disks infected with all instars of the green peach aphid (Myzus persicae), are sprayed with a preparation of the active ingredient of the desired concentration.
After 5 days mortality in % is determined. 100% means all aphids have been killed and 0% means none of the aphids have been killed.
Myzus persicae—Spray Test (MYZUPE)
(§3) • Solvent: 78.0 parts by weight acetone • 1.5 parts by weight dimethylformamide • Emulsifier: alkylarylpolyglycol ether
After the specified period of time, mortality in % is determined. 100% means all aphids have been killed and 0% means none of the aphids have been killed.

Row | SMILES | mortality at 100 g/ha
16 | C[C@H](NC(=O)c1cc(Cl)cc(S(C)(=O)=O)c1)c1ncnn1-c1cc(C(N)=O)ncn1 [I-59] | 90%
17 | CNC(=O)c1cc(-n2ncnc2[C@H](C)NC(=O)c2cc(Cl)cc(S(C)(=O)=O)c2)ncn1 [I-60] | 90%
18 | CNC(=O)c1cc(-n2ncnc2[C@H](C)NC(=O)c2cc(Br)cc(OC(F)F)c2)ncn1 [I-72] | 90%
19 | C[C@H](NC(=O)c1cc(F)cc(C#N)c1)c1ncnn1-c1cc(C(N)=O)ncn1 [I-77] | 100%
20 | C[C@H](NC(=O)c1cc(C(F)(F)F)cc(S(C)(=O)=O)c1)c1ncnn1-c1cc(C(N)=O)ncn1 [I-78] | 90%
21 | C[C@H](NC(=O)c1cc(F)cc(OC(F)F)c1)c1ncnn1-c1cc(C(N)=O)ncn1 [I-79] | 100%
22 | CNC(=O)c1cc(-n2ncnc2[C@H](C)NC(=O)c2cc(C(F)(F)F)cc(S(C)(=O)=O)c2)ncn1 [I-81] | 100%
23 | C[C@H](NC(=O)c1cc(OC(F)(F)F)cc(S(C)(=O)=O)c1)c1ncnn1-c1cc(C(N)=O)ncn1 [I-82] | 90%
24 | CNC(=O)c1cc(-n2ncnc2[C@H](C)NC(=O)c2cc(OC(F)(F)F)cc(S(C)(=O)=O)c2)ncn1 [I-83] | 100%
25 | C[C@H](NC(=O)c1cccc(C(F)(F)F)c1)c1ncnn1-c1cc(C(N)=O)ncn1 [I-92] | 100%
26 | CNC(=O)c1cc(-n2ncnc2[C@H](C)NC(=O)c2cc(OC(F)F)cc(OC(F)F)c2)ncn1 [I-94] | 100%
27 | Cc1nc([C@H](C)NC(=O)c2cccc(OC(F)(F)F)c2)n(-c2cc(C(N)=O)ncn2)n1 [I-101] | 90%

system: larvae of the southern green stink bug (Nezara viridula); assay: whole plant or invertebrate; format: in vivo; settings: 96 h
Description: Nezara viridula—Spray Test
as §1, §2
Barley plants (Hordeum vulgare) are sprayed with a test solution containing the desired concentration of the active ingredient and are infested with larvae of the southern green stink bug (Nezara viridula).
After 4 days mortality in % is determined. 100% means all the stink bugs have been killed; 0% means none of the stink bugs have been killed.

Row | SMILES | mortality at 500 g/ha | mortality at 100 g/ha
28 | Cc1nc([C@H](C)NC(=O)c2cc(C(F)(F)F)cc(S(C)(=O)=O)c2)n(-c2cc(C#N)ncn2)n1 [I-23] | 100% | –
29 | C[C@H](NC(=O)c1cccc(F)c1)c1ncnn1-c1cc(C(N)=O)ncn1 [I-44] | 100% | 100%
30 | C[C@H](NC(=O)c1cc(Cl)cc(S(C)(=O)=O)c1)c1ncnn1-c1cc(C(N)=O)ncn1 [I-59] | 100% | –
31 | CNC(=O)c1cc(-n2ncnc2[C@H](C)NC(=O)c2cc(Cl)cc(S(C)(=O)=O)c2)ncn1 [I-60] | 100% | –
32 | CNC(=O)c1cc(-n2ncnc2[C@H](C)NC(=O)c2cc(Br)cc(OC(F)F)c2)ncn1 [I-72] | 100% | –
33 | C[C@H](NC(=O)c1cc(F)cc(C#N)c1)c1ncnn1-c1cc(C(N)=O)ncn1 [I-77] | 100% | –
34 | C[C@H](NC(=O)c1cc(C(F)(F)F)cc(S(C)(=O)=O)c1)c1ncnn1-c1cc(C(N)=O)ncn1 [I-78] | 100% | –
35 | C[C@H](NC(=O)c1cc(F)cc(OC(F)F)c1)c1ncnn1-c1cc(C(N)=O)ncn1 [I-79] | 100% | –
36 | CNC(=O)c1cc(-n2ncnc2[C@H](C)NC(=O)c2cc(C(F)(F)F)cc(S(C)(=O)=O)c2)ncn1 [I-81] | 100% | –
37 | C[C@H](NC(=O)c1cc(OC(F)(F)F)cc(S(C)(=O)=O)c1)c1ncnn1-c1cc(C(N)=O)ncn1 [I-82] | 100% | –
38 | CNC(=O)c1cc(-n2ncnc2[C@H](C)NC(=O)c2cc(OC(F)(F)F)cc(S(C)(=O)=O)c2)ncn1 [I-83] | 100% | –
39 | C[C@H](NC(=O)c1cccc(C(F)(F)F)c1)c1ncnn1-c1cc(C(N)=O)ncn1 [I-92] | 100% | –
40 | CNC(=O)c1cc(-n2ncnc2[C@H](C)NC(=O)c2cc(OC(F)F)cc(OC(F)F)c2)ncn1 [I-94] | 100% | –
41 | Cc1nc([C@H](C)NC(=O)c2cccc(OC(F)(F)F)c2)n(-c2cc(C(N)=O)ncn2)n1 [I-101] | 100% | –

system: brown planthopper (Nilaparvata lugens); assay: Nilaparvata lugens spray test; format: in vivo; settings: 96 h
Description: Nilaparvata lugens—Spray Test
as §1
as §2, with “solvents” for “solvent,”, “and” for “and the concentrate”
Rice plants (Oryza sativa) are sprayed with a preparation of the active ingredient of the desired concentration and the plants are infested with the brown planthopper (Nilaparvata lugens).
After 4 days mortality in % is determined. 100% means all planthoppers have been killed and 0% means none of the planthoppers have been killed.

Row | SMILES | mortality at 500 g/ha
42 | Cc1nc([C@H](C)NC(=O)c2cc(C(F)(F)F)cc(S(C)(=O)=O)c2)n(-c2cc(C#N)ncn2)n1 [I-23] | 100%
43 | Cc1nc([C@H](C)NC(=O)c2cc(S(=O)(=O)C(F)(F)F)cc(S(=O)(=O)C(F)(F)F)c2)n(-c2cc(C#N)ncn2)n1 [I-29] | 100%
44 | C[C@H](NC(=O)c1cccc(F)c1)c1ncnn1-c1cc(C(N)=O)ncn1 [I-44] | 100%
45 | C[C@H](NC(=O)c1cc(Cl)cc(S(C)(=O)=O)c1)c1ncnn1-c1cc(C(N)=O)ncn1 [I-59] | 100%
46 | CNC(=O)c1cc(-n2ncnc2[C@H](C)NC(=O)c2cc(Cl)cc(S(C)(=O)=O)c2)ncn1 [I-60] | 100%
47 | CNC(=O)c1cc(-n2ncnc2[C@H](C)NC(=O)c2cc(Br)cc(OC(F)F)c2)ncn1 [I-72] | 100%
48 | C[C@H](NC(=O)c1cc(F)cc(C#N)c1)c1ncnn1-c1cc(C(N)=O)ncn1 [I-77] | 100%
49 | C[C@H](NC(=O)c1cc(C(F)(F)F)cc(S(C)(=O)=O)c1)c1ncnn1-c1cc(C(N)=O)ncn1 [I-78] | 100%
50 | C[C@H](NC(=O)c1cc(F)cc(OC(F)F)c1)c1ncnn1-c1cc(C(N)=O)ncn1 [I-79] | 100%
51 | CNC(=O)c1cc(-n2ncnc2[C@H](C)NC(=O)c2cc(C(F)(F)F)cc(S(C)(=O)=O)c2)ncn1 [I-81] | 100%
52 | C[C@H](NC(=O)c1cc(OC(F)(F)F)cc(S(C)(=O)=O)c1)c1ncnn1-c1cc(C(N)=O)ncn1 [I-82] | 100%
53 | CNC(=O)c1cc(-n2ncnc2[C@H](C)NC(=O)c2cc(OC(F)(F)F)cc(S(C)(=O)=O)c2)ncn1 [I-83] | 100%
54 | C[C@H](NC(=O)c1cccc(C(F)(F)F)c1)c1ncnn1-c1cc(C(N)=O)ncn1 [I-92] | 100%
55 | CNC(=O)c1cc(-n2ncnc2[C@H](C)NC(=O)c2cc(OC(F)F)cc(OC(F)F)c2)ncn1 [I-94] | 100%
56 | Cc1nc([C@H](C)NC(=O)c2cccc(OC(F)(F)F)c2)n(-c2cc(C(N)=O)ncn2)n1 [I-101] | 100%

system: fall armyworm larvae (Spodoptera frugiperda); assay: whole plant or invertebrate; format: in vivo; settings: 168 h
Description: Spodoptera frugiperda—Spray Test
as §3
as §2, with “solvents” for “solvent,”, “and” for “and the concentrate”
Maize (Zea mays) leaf sections are sprayed with a preparation of the active ingredient of the desired concentration. Once dry, the leaf sections are infested with fall armyworm larvae (Spodoptera frugiperda).
After 7 days mortality in % is determined. 100% means all caterpillars have been killed and 0% means none of the caterpillars have been killed.
Spodoptera frugiperda—Spray Test (SPODFR)
After the specified period of time, mortality in % is determined. 100% means all caterpillars have been killed and 0% means none of the caterpillars have been killed.

Row | SMILES | mortality at 100 g/ha
57 | Cc1nc([C@H](C)NC(=O)c2cc(S(=O)(=O)C(F)(F)F)cc(S(=O)(=O)C(F)(F)F)c2)n(-c2cc(C#N)ncn2)n1 [I-29] | 100%
58 | CNC(=O)c1cc(-n2ncnc2[C@H](C)NC(=O)c2cc(Br)cc(OC(F)F)c2)ncn1 [I-72] | 100%
59 | C[C@H](NC(=O)c1cc(C(F)(F)F)cc(S(C)(=O)=O)c1)c1ncnn1-c1cc(C(N)=O)ncn1 [I-78] | 100%
60 | C[C@H](NC(=O)c1cc(F)cc(OC(F)F)c1)c1ncnn1-c1cc(C(N)=O)ncn1 [I-79] | 100%
61 | CNC(=O)c1cc(-n2ncnc2[C@H](C)NC(=O)c2cc(C(F)(F)F)cc(S(C)(=O)=O)c2)ncn1 [I-81] | 100%
62 | C[C@H](NC(=O)c1cc(OC(F)(F)F)cc(S(C)(=O)=O)c1)c1ncnn1-c1cc(C(N)=O)ncn1 [I-82] | 100%
63 | CNC(=O)c1cc(-n2ncnc2[C@H](C)NC(=O)c2cc(OC(F)(F)F)cc(S(C)(=O)=O)c2)ncn1 [I-83] | 100%
64 | C[C@H](NC(=O)c1cccc(C(F)(F)F)c1)c1ncnn1-c1cc(C(N)=O)ncn1 [I-92] | 100%
65 | CNC(=O)c1cc(-n2ncnc2[C@H](C)NC(=O)c2cc(OC(F)F)cc(OC(F)F)c2)ncn1 [I-94] | 100%
66 | Cc1nc([C@H](C)NC(=O)c2cccc(OC(F)(F)F)c2)n(-c2cc(C(N)=O)ncn2)n1 [I-101] | 100%
